These results are taken from patent publication US20260078089A1, “BIOACTIVE PHYTOCHEMICALS IN ZIZYPHUS AND GUARANA” (Phytoquest Limited, priority 2018, published 2026).

The term % inhibition denotes the relative decrease from the control value, in per cent.

Structures are written as SMILES. Some results are limits rather than exact numbers.

The subject of assay [1] is male ddy mouse. Description: Maltose loading test, blood glucose in mice. In kind it is in vivo. The note with it: oral maltose 2.5 g/kg, test sample 500 mg/kg body weight, mean n = 5. As to the method: (§1) The animal experimental protocols in this study were approved by the Animal Experiments Committee of the University of Toyama (S-2010 UH-2). Male ddy mice (29-33 g) after an overnight fast were used for acute disaccharide loading tests. Maltose (2.5 g/kg body weight) or Sucrose (2.5 g/kg body weight) as well as the test samples were dissolved in 0.9% NaCl solution and administered to mice via a stomach tube. A control group was loaded with saline only.
(§2) Blood samples for glucose measurements were obtained from the tail vein at 0, 15, 30, 60, and 120 min after disaccharide-loading. The blood glucose levels were measured by a portable kit, Antsence II™ (Sankyo Co. Ltd. Tokyo, Japan). The Zizyphus extract HS0810/142/41 as well as the purified compounds were tested in this way.

The target of assay [2] is T1, α-D-glucosidase (Saccharomyces cerevisiae, UniProt P53341).
T1 construct: purchased Sigma Aldrich Chemicals Limited
T1 sequence (P53341 whole entry): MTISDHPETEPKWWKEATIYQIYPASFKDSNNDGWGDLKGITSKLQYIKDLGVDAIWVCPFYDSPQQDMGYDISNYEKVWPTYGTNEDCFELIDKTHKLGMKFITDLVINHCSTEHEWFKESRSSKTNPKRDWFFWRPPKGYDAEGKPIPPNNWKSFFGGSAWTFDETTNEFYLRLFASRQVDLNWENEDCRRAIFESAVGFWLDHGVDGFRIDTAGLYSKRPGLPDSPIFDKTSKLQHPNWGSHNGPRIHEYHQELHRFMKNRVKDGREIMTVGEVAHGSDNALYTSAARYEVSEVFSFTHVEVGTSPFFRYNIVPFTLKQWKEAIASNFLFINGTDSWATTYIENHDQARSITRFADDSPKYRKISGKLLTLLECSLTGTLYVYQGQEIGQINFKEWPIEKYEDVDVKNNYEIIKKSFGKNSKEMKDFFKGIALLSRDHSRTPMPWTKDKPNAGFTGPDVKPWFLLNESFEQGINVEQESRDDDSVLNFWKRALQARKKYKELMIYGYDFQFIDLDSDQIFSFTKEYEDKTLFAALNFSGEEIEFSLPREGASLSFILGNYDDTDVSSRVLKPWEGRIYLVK
The assay is described as follows: Glycosidase assay, p-nitrophenyl substrate. The class given is biochemical. Conditions: Saccharomyces cerevisiae enzyme; screened at 0.14 mg mL−1 (footnote: 0.4 mM); 20° C. The protocol:
(§3) Glycosidase assays were conducted as described by Watson et al. (Phytochemistry 1997, 46, 255) using p-nitrophenyl-substrates (except sialidase which used methylumbeliferyl-N-acetyineuraminic acid as substrate). Assays were carried out in microtitre plates. Enzymes were assayed in 0.1 M citric acid/0.2 M di-sodium hydrogen phosphate (McIlvaine) buffers at the optimum pH for the enzyme. All assays were carried out at 20° C. All enzymes and substrates were purchased from Sigma Aldrich Chemicals Limited. The incubation mixture consisted of 10 μl of enzyme solution, 10 μl of the iminosugars solution and 50 μl of the appropriate 5 mM p-nitrophenyl substrate made up in McIlvaine buffer at the optimum pH for the enzyme. The reactions were stopped with 0.4 M glycine (pH 10.4) during the exponential phase of the reaction. Absorbances were read at 405 nm. Water was substituted for the alkaloids in the blanks. Reactions were carried out in triplicate.
(§4) Enzyme inhibitor solutions—Compounds were dissolved in distilled water at a concentration of 1 mg mL^−1 and then screened at a concentration of 0.14 mg mL^−1 after dilution of the 1 mg mL^−1 in the assay volumes of substrates.

The target of assay [3] is T2, α-D-mannosidase (Canavalia ensiformis, UniProt C0HJB3).
T2 construct: purchased Sigma Aldrich Chemicals Limited
T2 sequence (C0HJB3 1-981): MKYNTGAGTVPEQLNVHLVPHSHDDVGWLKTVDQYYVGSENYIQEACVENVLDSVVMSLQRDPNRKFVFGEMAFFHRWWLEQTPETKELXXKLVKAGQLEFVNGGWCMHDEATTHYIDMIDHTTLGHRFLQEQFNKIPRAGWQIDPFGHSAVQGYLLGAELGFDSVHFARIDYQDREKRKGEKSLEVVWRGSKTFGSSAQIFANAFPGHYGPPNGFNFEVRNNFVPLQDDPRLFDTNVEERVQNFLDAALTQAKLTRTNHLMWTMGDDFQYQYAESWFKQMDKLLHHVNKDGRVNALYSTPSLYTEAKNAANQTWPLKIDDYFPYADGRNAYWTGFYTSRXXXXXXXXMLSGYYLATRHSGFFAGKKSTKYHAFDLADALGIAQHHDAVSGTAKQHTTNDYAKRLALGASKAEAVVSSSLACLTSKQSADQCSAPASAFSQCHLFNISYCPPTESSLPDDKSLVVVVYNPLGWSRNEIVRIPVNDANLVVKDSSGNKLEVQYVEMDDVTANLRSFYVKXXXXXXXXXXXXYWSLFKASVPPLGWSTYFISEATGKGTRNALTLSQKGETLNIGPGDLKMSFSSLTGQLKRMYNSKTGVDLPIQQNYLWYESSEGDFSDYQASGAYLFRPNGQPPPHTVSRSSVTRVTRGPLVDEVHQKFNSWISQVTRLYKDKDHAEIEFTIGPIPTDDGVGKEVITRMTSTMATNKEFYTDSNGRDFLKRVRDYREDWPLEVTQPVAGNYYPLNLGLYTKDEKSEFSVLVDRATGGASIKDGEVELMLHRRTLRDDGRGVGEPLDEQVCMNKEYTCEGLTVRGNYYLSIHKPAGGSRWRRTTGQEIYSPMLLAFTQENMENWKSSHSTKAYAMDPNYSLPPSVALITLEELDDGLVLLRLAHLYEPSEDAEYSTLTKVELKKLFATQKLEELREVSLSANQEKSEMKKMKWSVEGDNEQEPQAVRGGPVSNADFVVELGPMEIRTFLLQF
Description: Glycosidase assay, p-nitrophenyl substrate. In kind it is biochemical. The note with it: Jack bean enzyme; screened at 0.14 mg mL−1 (footnote: 0.4 mM). As to the method: as §3, §4

In assay [4] the target is T3, α-L-fucosidase (Bos taurus, UniProt Q2KIM0).
T3 construct: purchased Sigma Aldrich Chemicals Limited
T3 sequence (Q2KIM0 23-468): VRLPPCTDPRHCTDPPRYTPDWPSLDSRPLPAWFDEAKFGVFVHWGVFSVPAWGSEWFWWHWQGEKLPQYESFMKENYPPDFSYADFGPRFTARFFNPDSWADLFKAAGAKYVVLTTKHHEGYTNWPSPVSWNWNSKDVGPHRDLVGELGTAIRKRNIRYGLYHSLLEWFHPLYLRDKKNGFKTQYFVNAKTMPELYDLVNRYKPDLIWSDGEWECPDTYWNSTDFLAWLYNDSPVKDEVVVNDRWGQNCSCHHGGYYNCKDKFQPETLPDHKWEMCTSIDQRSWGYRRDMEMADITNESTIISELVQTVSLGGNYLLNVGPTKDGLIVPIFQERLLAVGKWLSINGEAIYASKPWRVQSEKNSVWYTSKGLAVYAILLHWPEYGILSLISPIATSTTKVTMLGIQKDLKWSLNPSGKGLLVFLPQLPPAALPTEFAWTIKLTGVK
The assay is described as follows: Glycosidase assay, p-nitrophenyl substrate. In kind it is biochemical. The note with it: Bovine kidney enzyme; screened at 0.14 mg mL−1 (footnote: 0.4 mM). The protocol: as §3, §4

Assay [5] deals with T4, α-D-glucosidase (Oryza sativa subsp. japonica, UniProt Q653V7).
T4 construct: purchased Sigma Aldrich Chemicals Limited
T4 sequence (Q653V7 34-885): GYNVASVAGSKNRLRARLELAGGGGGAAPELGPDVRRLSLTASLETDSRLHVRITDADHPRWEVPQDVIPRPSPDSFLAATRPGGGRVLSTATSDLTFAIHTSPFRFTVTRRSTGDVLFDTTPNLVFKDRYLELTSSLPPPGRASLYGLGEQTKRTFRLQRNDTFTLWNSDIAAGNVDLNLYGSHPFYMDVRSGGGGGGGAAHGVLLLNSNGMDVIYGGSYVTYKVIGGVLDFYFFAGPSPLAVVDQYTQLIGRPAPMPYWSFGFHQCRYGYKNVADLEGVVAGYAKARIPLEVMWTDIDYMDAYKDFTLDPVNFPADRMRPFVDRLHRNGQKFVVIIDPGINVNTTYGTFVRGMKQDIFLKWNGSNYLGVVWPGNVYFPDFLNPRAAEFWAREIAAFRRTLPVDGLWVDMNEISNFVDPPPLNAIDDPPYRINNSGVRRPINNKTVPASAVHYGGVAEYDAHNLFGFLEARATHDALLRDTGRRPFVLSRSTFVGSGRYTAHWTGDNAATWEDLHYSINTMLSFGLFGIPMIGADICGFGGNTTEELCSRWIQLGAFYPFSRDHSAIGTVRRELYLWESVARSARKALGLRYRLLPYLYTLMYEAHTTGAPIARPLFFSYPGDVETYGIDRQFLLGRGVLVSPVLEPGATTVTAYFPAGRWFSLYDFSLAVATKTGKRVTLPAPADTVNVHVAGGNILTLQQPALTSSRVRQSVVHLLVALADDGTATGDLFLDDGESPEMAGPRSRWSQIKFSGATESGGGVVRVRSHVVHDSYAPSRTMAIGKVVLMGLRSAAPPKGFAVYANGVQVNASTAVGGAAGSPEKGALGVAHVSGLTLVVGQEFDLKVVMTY
The assay is described as follows: Glycosidase assay, p-nitrophenyl substrate. Conditions: Rice enzyme; screened at 0.14 mg mL−1 (footnote: 0.4 mM). In kind it is biochemical. As to the method: as §3, §4

The target in assay [6] is T5, N-acetyl-β-D-hexosaminidase (Aspergillus oryzae, UniProt Q8J2T0).
T5 construct: purchased Sigma Aldrich Chemicals Limited
T5 sequence (Q8J2T0 97-600): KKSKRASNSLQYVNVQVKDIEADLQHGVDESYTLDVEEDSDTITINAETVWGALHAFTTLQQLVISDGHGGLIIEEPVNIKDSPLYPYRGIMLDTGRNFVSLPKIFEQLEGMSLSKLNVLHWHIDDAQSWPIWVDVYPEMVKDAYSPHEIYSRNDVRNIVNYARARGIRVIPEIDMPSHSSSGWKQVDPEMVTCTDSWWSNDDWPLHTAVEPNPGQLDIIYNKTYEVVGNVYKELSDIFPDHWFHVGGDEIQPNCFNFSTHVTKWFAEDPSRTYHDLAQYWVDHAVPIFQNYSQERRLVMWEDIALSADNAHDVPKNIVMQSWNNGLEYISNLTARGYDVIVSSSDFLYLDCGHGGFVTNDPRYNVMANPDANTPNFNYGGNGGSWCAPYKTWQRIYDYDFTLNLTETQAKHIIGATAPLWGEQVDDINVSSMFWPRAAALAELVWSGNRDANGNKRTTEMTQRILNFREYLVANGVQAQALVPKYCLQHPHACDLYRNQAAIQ
Description: Glycosidase assay, p-nitrophenyl substrate. Conditions: Aspergillus oryzae enzyme; screened at 0.14 mg mL−1 (footnote: 0.4 mM). In kind it is biochemical. As to the method: as §3, §4

Assay [7] has as its target T6, α-D-galactosidase (Coffea arabica, UniProt Q42656).
T6 construct: purchased Sigma Aldrich Chemicals Limited
The assay is described as follows: Glycosidase assay, p-nitrophenyl substrate. The class given is biochemical. The note with it: Green coffee bean enzyme; screened at 0.14 mg mL−1 (footnote: 0.4 mM). The protocol:
as §3, §4

Assay [8] has as its system male ddy mouse. Description: Sucrose loading test, blood glucose in mice. The class given is in vivo. The note with it: oral sucrose 2.5 g/kg, test sample 500 mg/kg body weight, mean n = 5. The protocol: as §1, §2

T6 sequence (Q42656 16-378): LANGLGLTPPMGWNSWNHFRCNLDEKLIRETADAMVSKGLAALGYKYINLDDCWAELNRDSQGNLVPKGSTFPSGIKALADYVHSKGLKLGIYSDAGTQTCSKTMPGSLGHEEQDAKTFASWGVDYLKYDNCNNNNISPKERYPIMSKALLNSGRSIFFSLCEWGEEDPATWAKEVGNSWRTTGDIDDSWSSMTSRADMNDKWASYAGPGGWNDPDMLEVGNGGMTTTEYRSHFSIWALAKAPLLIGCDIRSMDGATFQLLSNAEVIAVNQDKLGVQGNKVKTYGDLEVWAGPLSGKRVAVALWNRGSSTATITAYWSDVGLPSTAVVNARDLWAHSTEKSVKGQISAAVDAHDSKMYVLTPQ

In the case of `CN1C[C@@H](CO)C[C@H]1C(=O)O` [Compound 1, N-methyl-4S-(hydroxymethyl)-2S-pyrrolidinecarboxylic acid], the blood glucose in assay [1] (0 min after administration) turned out to be 83 mg/dL; in assay [1] (15 min after administration), 231 mg/dL; in assay [1] (30 min after administration), 187 mg/dL; in assay [1] (60 min after administration), 140 mg/dL; in assay [1] (120 min after administration), 74 mg/dL. For the same compound, the “% inhibition” value in assay [2] is given as less than 5%; in assay [3], 18%; in assay [4], 15%; in assay [5], 5%; in assay [6] it was −6%; in assay [7], less than 5%.

In the case of `CN1C[C@](O)(CO)C[C@H]1C(=O)O` [Compound 3, N-methyl-4-hydroxy-4S-(hydroxymethyl)-2S-pyrrolidinecarboxylic acid], the blood glucose is on record as 83 mg/dL in assay [1] (0 min after administration); 233 mg/dL in assay [1] (15 min after administration); 185 mg/dL in assay [1] (30 min after administration); 130 mg/dL in assay [1] (60 min after administration); 80 mg/dL in assay [1] (120 min after administration); 109 mg/dL in assay [8] (0 min after administration). Further, the blood glucose is listed as 183 mg/dL in assay [8] (15 min after administration), 143 mg/dL in assay [8] (30 min after administration), 106 mg/dL in assay [8] (60 min after administration) and 80 mg/dL in assay [8] (120 min after administration). For the same compound, the “% inhibition” value in assay [2] is given as less than 5%; in assay [3] it was 6%; in assay [5], 11%; in assay [6] it was −6%; in assay [7], less than 5%.
